Test results as given in patent publication US20120329738A1, “Water Soluble Drug-Solubilizer Powders and Their Uses” (priority 2009, published 2012).
Values after ≈ are worked out from the molar mass of the structure shown. Values joined by “and” are separate entries in the source; they are usually repeats but may differ in a detail not shown here. Equal entries are not always repeated. Where two headings read alike, the source gives them in different places. One block for each compound: values may come before it.

Key:
[1] = for Curcumin content of reconstituted solution: 100 mg in 10 mL water
Procedure: The water solutions containing the complexes of the water-insoluble compound and the solubilizer were dried to remove the water and to form a powder. […] Any method of water removal could be used, including freeze-drying, spray-drying, or oven drying. […] The amount of added water can be adjusted to achieve the desired concentration of the compound.
The 30% and 40% curcumin-rubusoside water solution (10 mL) were freeze-dried to powder. […] Part of this powder (100 mg) was re-constituted in 10 mL water. […] (FIG. 13) Similarly, the 30% curcumin-rebusoside solution was freeze-dried to powder, and 100 mg powder reconstituted with 10 mL water.
The powder was reconstituted using 1 ml, 0.5 ml, 0.25 ml or 0.1 ml water, followed by 60 min sonication and a brief vortex. […] Paclitaxel concentrations were determined using a standard paclitaxel calibration curve with paclitaxel standard in methanol. […] (FIG. 15).

[2] = Stability of curcumin-rubusoside water solutions (dilution with water, storage, pH); format: physicochemical
Procedure: This is important because the concentrated curcumin solution may be diluted in a biological system, e.g., in the stomach fluid.
Various concentrations of the solubilizer rubusoside were prepared in water: 0%, 1%, 2.5%, 5%, 10%, 20%, 30%, and 40% w/v. Curcumin (100 mg) was weighed and added into separate flasks, and an equal amount (10 ml) of a rubusoside solution was added to each flask. The prepared water solutions were vortexed briefly and then sonicated for 60 min at temperature of 50° C. These water solutions were subjected to a heat and pressure treatment composed of 121° C. and 1.1 to 1.2 atm for 60 min, and then placed in an incubator set at 25° C. for at least 24 hr. The solutions were then centrifuged at 4000 rpm for 10 min. The supernatant solution was passed through a 0.45 μm filter and analyzed for the concentration of either the water-insoluble compound or rubusoside by HPLC or LC/MS, as described above in Example 2. Quantification was done by comparing to a standard solution of a known amount in methanol. In the presence of 0%, 1%, 2.5%, 5%, 10%, 20%, 30%, and 40% w/v of rubusoside, the water solutions contained 0, 28, 267, 762, 1330, 2914, 4449, and 6004 μg/mL curcumin, respectively. […] When adjusted to about pH 7.0 by the addition of 1× phosphate buffered saline (PBS) powder, the solutions remained stable for at least 48 hours. Thus the reconstituted solution with saline would be sufficiently stable at pH 7.0 for use in a clinic setting.

[3] = Concentration of curcumin dissolved in rebaudioside A water solution, HPLC; format: physicochemical; settings: 5% w/v rebaudioside A
Text: A new method (the “Sonication—autoclave method”) was used to solublize most of the compounds, a method different from that reported in International Patent Application No. PCT/US2009/040324 (the “Standard Shake Flask method”). The main difference was the use of higher temperatures and elevated atmospheric pressures. The steps of the new enhanced process are as follows. A water-insoluble compound was weighed into multiple flasks, divided into two groups—a control group and an experimental group. Each experimental flask received a known amount of the solubilizing agent, e.g. rubusoside, being tested. The control flasks contained only the water-insoluble compound. The same volume, 10 mL, unless otherwise indicated, of deionized and distilled water was added to each flask. Alternatively, water solutions containing a known percentage of solubilizer (e.g., 5% or 10% w/v) were prepared. The solubilizer-water solutions were added directly to the experimental flasks containing the water-insoluble compound. In either case, the flasks were then vortexed briefly and sonicated for 60 min at 50° C. Sonication is a process of applying sound (usually ultrasound) energy to agitate particles in a sample. Using this energy, inter-molecular interactions are facilitated. After sonication, the solution was then subjected to heat and pressure. […] The supernatant solution was passed through a 0.45 μm filter and analyzed for the concentration of the water-insoluble compound or solubilizer by HPLC or LC/MS, as described below.
To test if the enhanced process also applies to another solubilizing agent, rebuadioside A was used. […] The water solutions were filtered by 0.45 μM filters and analyzed on HPLC. Quantification was done by comparing to a standard solution of a known amount of curcumin in methanol. […] Curcumin concentration was determined using a standard curcumin solution of 196.8 μg/mL. […]

[4] = tested on: human pancreatic cancer cells (PANC-1); test: Growth inhibition of PANC-1 cells by re-constituted curcumin water solution; format: cell-based
Procedure: The pH-adjusted water solution was then co-cultured with human pancreatic cancer cells (PANC-1) for 72 hours in a standard cell culture medium. […] All culture materials were purchased from Invitrogen Corporation (Carlsbad, Calif.). […] (FIG. 14).

[5] = tested on: human pancreatic cancer cells (PANC-1); settings: literature value; read-out: IC50 for Panc-1 reported by Holcomb et al.; cited from earlier work
P-gp = target: T1, P-gp (Homo sapiens, UniProt P08183); test: P-gp inhibition in Caco-2 assay with digoxin probe substrate; format: in vitro ADME; settings: Caco-2 cell monolayers, probe digoxin 5 µM, test conc 1 mg/mL (1.558 mM), 5 μM digoxin
T1 construct: endogenous in cells; host or cells: Caco-2 (ATCC), differentiated for three weeks on collagen-coated inserts
T1 sequence (P08183 whole entry): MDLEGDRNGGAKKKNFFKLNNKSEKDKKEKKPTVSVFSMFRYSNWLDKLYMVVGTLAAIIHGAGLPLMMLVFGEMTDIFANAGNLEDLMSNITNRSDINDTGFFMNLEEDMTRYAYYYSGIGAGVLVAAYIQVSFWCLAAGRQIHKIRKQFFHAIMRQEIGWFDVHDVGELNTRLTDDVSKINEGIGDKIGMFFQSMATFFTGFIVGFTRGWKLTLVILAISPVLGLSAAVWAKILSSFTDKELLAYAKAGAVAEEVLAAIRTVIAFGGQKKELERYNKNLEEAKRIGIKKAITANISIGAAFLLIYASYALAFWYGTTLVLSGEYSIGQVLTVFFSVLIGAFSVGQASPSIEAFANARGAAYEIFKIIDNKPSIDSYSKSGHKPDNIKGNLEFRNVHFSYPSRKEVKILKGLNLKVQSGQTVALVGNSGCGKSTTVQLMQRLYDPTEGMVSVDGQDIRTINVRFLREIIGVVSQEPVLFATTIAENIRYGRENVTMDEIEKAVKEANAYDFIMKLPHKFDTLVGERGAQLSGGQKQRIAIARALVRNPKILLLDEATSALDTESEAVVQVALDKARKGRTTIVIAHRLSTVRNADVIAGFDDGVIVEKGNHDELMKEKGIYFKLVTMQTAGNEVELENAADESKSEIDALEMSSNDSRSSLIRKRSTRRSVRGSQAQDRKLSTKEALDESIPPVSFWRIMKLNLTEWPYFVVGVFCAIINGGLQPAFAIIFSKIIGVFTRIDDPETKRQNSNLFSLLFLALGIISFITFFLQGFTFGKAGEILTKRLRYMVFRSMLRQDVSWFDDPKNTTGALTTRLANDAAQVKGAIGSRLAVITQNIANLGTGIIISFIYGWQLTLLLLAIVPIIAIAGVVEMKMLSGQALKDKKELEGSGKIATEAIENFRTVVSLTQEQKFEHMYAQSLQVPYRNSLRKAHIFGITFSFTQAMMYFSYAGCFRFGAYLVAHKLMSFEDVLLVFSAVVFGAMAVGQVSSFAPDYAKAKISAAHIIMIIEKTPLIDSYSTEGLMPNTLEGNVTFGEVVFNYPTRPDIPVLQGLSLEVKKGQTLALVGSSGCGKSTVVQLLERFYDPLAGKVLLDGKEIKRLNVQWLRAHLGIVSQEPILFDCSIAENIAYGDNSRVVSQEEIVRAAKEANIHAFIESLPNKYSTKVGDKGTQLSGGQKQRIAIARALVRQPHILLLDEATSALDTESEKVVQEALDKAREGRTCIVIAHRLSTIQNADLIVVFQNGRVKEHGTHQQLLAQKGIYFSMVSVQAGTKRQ

[6] = Solubility in water without solubilizer; format: physicochemical
physchem = settings: 25 °C, aqueous with cosolvent or surfactant or cyclodextrin, thermodynamic from solid
[7] = room temperature; The Merck Index, 1996; cited from earlier work
in vitro = settings: human, Caco-2
Text: Human epithelial colorectal adenocarcinoma cell line (Caco-2) was obtained from the American Type Culture Collection (ATCC), and cultured according to directions. Caco-2 cells grown in tissue culture flasks were trypsinized, suspended in medium, and the suspensions were applied to wells of a collagen-coated BioCoat Cell Environment in 24-well format (BD Biosciences) at 24,500 cells per well. The cells were allowed to grow and differentiate for three weeks, feeding at 2-day intervals. […] For Apical to Basolateral (A->B) permeability, the test agent (1 mg/mL)+probe substrate were added to the apical (A) side, test agent was added to the Basolateral (B) side, and amount of permeation was determined on the B side. For Basolateral to Apical (B>A) permeability, the test agent+probe substrate were added to the B side, test agent was added to the A side, and the amount of permeation of probe substrate was determined on the A side. Buffer alone, without test agent, was used as a negative control. […] Dosing solutions were prepared by dissolving the test agent in Transport buffer, then adding Lucifer yellow to a portion as indicated. CaCo-2 cells were incubated with these buffers for 2 h., and the receiver side buffer is removed for analysis by LC/MS/MS.
To verify the CaCo-2 cell monolayers were properly formed, aliquots of the cell buffers were analyzed by fluorescence to determine the transport of the impermeable dye Lucifer Yellow.
Where dQ/dt is the rate of permeation, C0 is the initial concentration of test agent, and A is the area of the monolayer.
From bidirectional permeability studies, the efflux ration (RE) is also calculated:
The P-gp inhibition data were calculated from the permeability results for the probe substrate as indicated. Ranitidine (low permeability) and warfarin (high permeability) are included as controls to ensure the proper performance of the test system.

Compound: C=C1C[C@@]23CC[C@H]4[C@@](C)(CCC[C@@]4(C)C(=O)O[C@@H]4O[C@H](CO)[C@@H](O)[C@H](O)[C@H]4O)[C@@H]2CC[C@]1(O[C@@H]1O[C@H](CO)[C@@H](O)[C@H](O)[C@H]1O)C3 [Rubusoside, b-D-glucosyl ester of 13-O-b-D-glucosyl-steviol]
inhibition at 2 h, 1 mg/mL (P-gp): 59%
solubility ([6]; 25° C.): ~400 mg/mL (≈ 622 mM)
solubility ([6]; 37° C.): ~800 mg/mL (≈ 1240 mM)

Compound: C=C1CC[C@H](O)C/C1=C/C=C1\CCC[C@]2(C)[C@@H]([C@H](C)CCCC(C)C)CC[C@@H]12 [vitamin D3, cholecalciferol]
solubility (physchem): 4.5 mg/mL (≈ 11.7 mM)
Concentration in re-composed single water solution (mixed vitamins A, D, E, K in 10% rubusoside): 4.7 µg/mL

Compound: O=C(O)c1cc(O)c(O)c(O)c1 [Gallic acid]
Solubility in water [7]: about 11 mg/ml

Compound: CC[C@@]1(O)C(=O)OCc2c1cc1n(c2=O)Cc2cc3ccccc3nc2-1 [camptothecin]
Fold increase, enhanced vs standard process (10% w/v rubusoside): more than 3 fold
Concentration in water solution (10% w/v rubusoside, enhanced process (Sonication-Autoclave)): 247 µg/mL
Concentration in water solution (10% w/v rubusoside, standard process (Shake-flask)): 80 µg/mL

The next lines start with results.

Reconstitution of dried powder [1]: successfully reconstituted
Curcumin content of reconstituted solution ([1]; powder from 30% rubusoside solution): 1.87 % w/w
Curcumin content of reconstituted solution ([1]; powder from 40% rubusoside solution): 2.03 % w/w
Curcumin in water solution ([2]; Stock, 40.0% w/v rubusoside): 6004 µg/mL
Curcumin in water solution ([2]; stock diluted 1:1 with water, 20.0% rubusoside): 2985 µg/mL
Curcumin in water solution ([2]; stock diluted 1:3 with water, 10.0% rubusoside): 1489 µg/mL
Curcumin in water solution ([2]; stock diluted 1:7 with water, 5.0% rubusoside): 742 µg/mL
Curcumin in water solution ([2]; stock diluted 1:15 with water, […] rubusoside): 358 µg/mL
Curcumin in water solution ([2]; stock diluted 1:39 with water, 1.0% rubusoside): 135 µg/mL
Fold increase, enhanced vs standard process [3]: ~2 fold
Curcumin in water solution ([3]; enhanced process): 302 µg/mL
Curcumin in water solution ([3]; standard process): 156 µg/mL
IC50 ([4]; Homo sapiens, PANC-1, re-constituted curcumin-rubusoside solution, pH 7.2, 72 hours): ~5.5 µg/mL and ~14.9 µM
Curcumin concentration (24 h): 0.34 mg/mL
Compound: COc1cc(/C=C/C(=O)CC(=O)/C=C/c2ccc(O)c(OC)c2)ccc1O [curcumin]
Growth inhibition ([4]; 6.25 μg/mL curcumin, 72 hours): strong inhibition
Curcumin concentration giving maximum growth inhibition ([4]; 72 hours): ≥ 12.5 µg/mL
Growth inhibition ([4]; curcumin below 3.13 μg/mL, 72 hours): no inhibitory effect
IC50 [5]: 17 µM

Reconstitution of dried powder [1]: successfully reconstituted
Compound: CC(=O)[C@H]1CC[C@H]2[C@@H]3CCC4=CC(=O)CC[C@]4(C)[C@H]3CC[C@]12C [progesterone]

Reconstitution of dried powder [1]: successfully reconstituted
Compound: Oc1ccc(C=Cc2cc(O)cc(O)c2)cc1 [resveratrol]

Papp A→B at 2 h, 10 μM (in vitro): 33.5 ×10⁻⁶ cm/s
Compound: CC(=O)CC(c1ccccc1)c1c(O)c2ccccc2oc1=O (stereo not shown) [Warfarin, warfarin]

Papp A→B at 2 h, 5 μM (in vitro): 1.4 ×10⁻⁶ cm/s
Papp B→A at 2 h, 5 μM (in vitro): 18.7 ×10⁻⁶ cm/s
efflux ratio at 2 h, 5 μM (in vitro): 13.7
Compound: C[C@H]1O[C@@H](O[C@H]2[C@@H](O)C[C@H](O[C@H]3[C@@H](O)C[C@H](O[C@H]4CC[C@@]5(C)[C@H](CC[C@@H]6[C@@H]5C[C@@H](O)[C@]5(C)[C@@H](C7=CC(=O)OC7)CC[C@]65O)C4)O[C@@H]3C)O[C@@H]2C)C[C@H](O)[C@@H]1O [Digoxin, digoxin]

Papp A→B at 2 h, 10 μM (in vitro): 1.7 ×10⁻⁶ cm/s
Compound: CNC(=C[N+](=O)[O-])NCCSCc1ccc(CN(C)C)o1 [Ranitidine]
